Read-outs that look alike come from different tables or passages of the source. Values belong to the compound of their own block, whether it stands above or below them.
Legend:
[1] = molecular target: soluble human BACE1 catalytic domain (Homo sapiens (Human), UniProt P56817); test: BACE1 HTRF FRET Assay; type: biochemical; details: Ki calculated from IC50 with Cheng-Prusoff equation;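 note: cleavage of a quenched APP Swedish mutant peptide (QSY7 quencher, Europium donor) measured as rise in 620 nm fluorescence after 1.5 h at 30 °C, inhibition suppresses signal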
Chain of soluble human BACE1 catalytic domain (P56817 75-416): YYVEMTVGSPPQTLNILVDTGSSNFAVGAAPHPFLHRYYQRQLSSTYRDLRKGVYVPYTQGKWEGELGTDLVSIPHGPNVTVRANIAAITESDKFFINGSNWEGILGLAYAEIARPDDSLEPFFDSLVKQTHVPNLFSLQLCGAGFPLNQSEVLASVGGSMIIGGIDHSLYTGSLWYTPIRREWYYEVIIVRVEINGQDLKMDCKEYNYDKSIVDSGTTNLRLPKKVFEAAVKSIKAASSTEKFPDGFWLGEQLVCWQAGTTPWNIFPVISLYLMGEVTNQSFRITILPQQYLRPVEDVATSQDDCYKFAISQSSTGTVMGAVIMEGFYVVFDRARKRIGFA

[2] = molecular target: BACE1 (Aβ40 in HEK293-APPswe/lon cells) (Homo sapiens (Human), UniProt P56817); test: BACE Inhibitor Whole Cell IC50 Determination Using HEK293-APPswe/lon Cells (Aβ40); type: cell-based; details: 4 hours
Chain of BACE1 (Aβ40 in HEK293-APPswe/lon cells) (P56817 46-501): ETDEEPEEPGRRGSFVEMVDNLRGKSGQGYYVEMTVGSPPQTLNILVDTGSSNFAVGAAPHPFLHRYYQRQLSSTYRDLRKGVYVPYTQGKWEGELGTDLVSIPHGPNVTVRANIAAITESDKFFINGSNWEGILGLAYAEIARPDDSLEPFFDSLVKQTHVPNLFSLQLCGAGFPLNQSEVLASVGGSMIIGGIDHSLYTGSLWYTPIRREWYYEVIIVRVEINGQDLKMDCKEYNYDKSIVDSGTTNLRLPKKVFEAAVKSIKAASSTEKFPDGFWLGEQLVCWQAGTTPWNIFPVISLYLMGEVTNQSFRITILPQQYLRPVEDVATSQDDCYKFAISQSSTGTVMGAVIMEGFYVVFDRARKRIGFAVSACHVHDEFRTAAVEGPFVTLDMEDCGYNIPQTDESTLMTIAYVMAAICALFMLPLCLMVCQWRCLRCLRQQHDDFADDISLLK

human liver Cathepsin D = human liver Cathepsin D (Homo sapiens (Human), UniProt P07339); test: Human Cathepsin D FRET Assay; type: biochemical; details: selectivity with respect to Cathepsin D vs BACE1
Chain of human liver Cathepsin D (P07339 65-412): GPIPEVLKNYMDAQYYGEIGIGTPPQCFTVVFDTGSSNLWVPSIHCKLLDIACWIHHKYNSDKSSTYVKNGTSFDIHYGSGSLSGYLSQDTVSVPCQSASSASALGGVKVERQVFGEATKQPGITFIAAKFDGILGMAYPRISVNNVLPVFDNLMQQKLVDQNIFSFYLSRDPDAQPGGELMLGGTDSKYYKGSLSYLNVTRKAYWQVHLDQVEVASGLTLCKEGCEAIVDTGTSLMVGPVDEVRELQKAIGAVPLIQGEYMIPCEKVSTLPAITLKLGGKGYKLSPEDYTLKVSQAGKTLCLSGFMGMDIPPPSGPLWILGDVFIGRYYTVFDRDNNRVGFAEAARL
Chain of human liver Cathepsin D (P07339 169-412): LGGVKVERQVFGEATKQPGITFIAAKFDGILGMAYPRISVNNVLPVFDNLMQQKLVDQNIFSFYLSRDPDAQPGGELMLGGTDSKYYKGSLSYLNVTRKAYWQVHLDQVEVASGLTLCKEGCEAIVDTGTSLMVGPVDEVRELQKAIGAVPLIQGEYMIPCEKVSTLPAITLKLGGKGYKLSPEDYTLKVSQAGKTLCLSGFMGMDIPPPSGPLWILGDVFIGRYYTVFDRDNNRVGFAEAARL

CYP2D6 = CYP2D6 (Homo sapiens (Human), UniProt P10635); test: CYP Inhibition Assay, CYP2D6; type: in vitro ADME; details: human liver microsomes
Chain of CYP2D6 (P10635 whole entry): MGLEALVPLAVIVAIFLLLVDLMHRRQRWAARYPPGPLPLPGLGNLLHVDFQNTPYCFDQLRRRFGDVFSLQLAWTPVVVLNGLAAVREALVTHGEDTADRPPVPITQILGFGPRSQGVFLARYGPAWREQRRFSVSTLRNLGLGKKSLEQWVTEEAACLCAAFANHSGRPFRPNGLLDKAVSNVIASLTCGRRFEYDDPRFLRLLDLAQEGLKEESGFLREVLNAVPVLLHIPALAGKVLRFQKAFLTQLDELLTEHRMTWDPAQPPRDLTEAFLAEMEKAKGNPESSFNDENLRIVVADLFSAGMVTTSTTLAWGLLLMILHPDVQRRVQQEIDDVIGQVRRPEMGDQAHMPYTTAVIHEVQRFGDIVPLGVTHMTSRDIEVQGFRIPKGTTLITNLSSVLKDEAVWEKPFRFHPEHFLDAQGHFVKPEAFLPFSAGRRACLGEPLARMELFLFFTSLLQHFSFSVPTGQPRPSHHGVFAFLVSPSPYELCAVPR

CYP3A4 = CYP3A4 (Homo sapiens (Human), UniProt P08684); test: CYP Inhibition Assay, CYP3A4; type: in vitro ADME; details: human liver microsomes;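 note: CYP probe substrate held near its Km, inhibition judged from metabolite formation quantified by LC-MS/MS against a standard curve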
Chain of CYP3A4 (P08684 whole entry): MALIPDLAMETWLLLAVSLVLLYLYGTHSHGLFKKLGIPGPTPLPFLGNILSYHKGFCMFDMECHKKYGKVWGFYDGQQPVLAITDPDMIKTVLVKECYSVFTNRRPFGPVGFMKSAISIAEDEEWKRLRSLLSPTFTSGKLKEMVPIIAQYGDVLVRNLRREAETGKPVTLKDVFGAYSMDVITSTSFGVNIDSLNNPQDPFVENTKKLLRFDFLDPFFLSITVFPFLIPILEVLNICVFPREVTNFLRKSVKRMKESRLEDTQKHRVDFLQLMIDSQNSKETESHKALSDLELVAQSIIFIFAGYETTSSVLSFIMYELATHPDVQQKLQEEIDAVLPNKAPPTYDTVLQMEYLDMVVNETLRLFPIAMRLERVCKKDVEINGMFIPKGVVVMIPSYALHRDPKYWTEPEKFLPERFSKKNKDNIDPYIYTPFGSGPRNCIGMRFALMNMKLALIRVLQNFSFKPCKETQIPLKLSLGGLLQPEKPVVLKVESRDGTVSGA

CYP2C9 = CYP2C9 (Homo sapiens (Human), UniProt P11712); test: CYP Inhibition Assay, CYP2C9; type: in vitro ADME; details: human liver microsomes;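 note: probe substrate held close to its Km, with metabolite formation quantified by LC-MS/MS against a calibration curve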
Chain of CYP2C9 (P11712 whole entry): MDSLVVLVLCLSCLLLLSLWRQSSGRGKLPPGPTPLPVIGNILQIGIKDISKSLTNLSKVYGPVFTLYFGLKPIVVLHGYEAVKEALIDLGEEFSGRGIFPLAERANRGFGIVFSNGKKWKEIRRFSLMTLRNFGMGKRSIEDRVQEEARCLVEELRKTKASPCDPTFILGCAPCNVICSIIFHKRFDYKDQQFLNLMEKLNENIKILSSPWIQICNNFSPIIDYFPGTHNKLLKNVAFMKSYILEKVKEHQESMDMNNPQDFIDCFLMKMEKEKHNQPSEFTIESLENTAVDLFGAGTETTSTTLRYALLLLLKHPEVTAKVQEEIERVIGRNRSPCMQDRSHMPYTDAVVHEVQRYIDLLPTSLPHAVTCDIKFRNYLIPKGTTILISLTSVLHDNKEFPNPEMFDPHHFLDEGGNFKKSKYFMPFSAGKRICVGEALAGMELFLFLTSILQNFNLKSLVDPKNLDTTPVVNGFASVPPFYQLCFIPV

hERG [3] = molecular target: T1, hERG (Homo sapiens (Human), UniProt Q12809); test: hERG screening, IonWorks Quattro (hERG L929 cells); type: cell-based; details: L929 cells expressing hERG; for inhibition at 5 min, 1 uM: read-out: HERG Ionworks % Inhib 1 uM; for inhibition at 5 min, 10 uM: read-out: HERG Ionworks % Inhib 10 uM
T1 sequence (Q12809 whole entry): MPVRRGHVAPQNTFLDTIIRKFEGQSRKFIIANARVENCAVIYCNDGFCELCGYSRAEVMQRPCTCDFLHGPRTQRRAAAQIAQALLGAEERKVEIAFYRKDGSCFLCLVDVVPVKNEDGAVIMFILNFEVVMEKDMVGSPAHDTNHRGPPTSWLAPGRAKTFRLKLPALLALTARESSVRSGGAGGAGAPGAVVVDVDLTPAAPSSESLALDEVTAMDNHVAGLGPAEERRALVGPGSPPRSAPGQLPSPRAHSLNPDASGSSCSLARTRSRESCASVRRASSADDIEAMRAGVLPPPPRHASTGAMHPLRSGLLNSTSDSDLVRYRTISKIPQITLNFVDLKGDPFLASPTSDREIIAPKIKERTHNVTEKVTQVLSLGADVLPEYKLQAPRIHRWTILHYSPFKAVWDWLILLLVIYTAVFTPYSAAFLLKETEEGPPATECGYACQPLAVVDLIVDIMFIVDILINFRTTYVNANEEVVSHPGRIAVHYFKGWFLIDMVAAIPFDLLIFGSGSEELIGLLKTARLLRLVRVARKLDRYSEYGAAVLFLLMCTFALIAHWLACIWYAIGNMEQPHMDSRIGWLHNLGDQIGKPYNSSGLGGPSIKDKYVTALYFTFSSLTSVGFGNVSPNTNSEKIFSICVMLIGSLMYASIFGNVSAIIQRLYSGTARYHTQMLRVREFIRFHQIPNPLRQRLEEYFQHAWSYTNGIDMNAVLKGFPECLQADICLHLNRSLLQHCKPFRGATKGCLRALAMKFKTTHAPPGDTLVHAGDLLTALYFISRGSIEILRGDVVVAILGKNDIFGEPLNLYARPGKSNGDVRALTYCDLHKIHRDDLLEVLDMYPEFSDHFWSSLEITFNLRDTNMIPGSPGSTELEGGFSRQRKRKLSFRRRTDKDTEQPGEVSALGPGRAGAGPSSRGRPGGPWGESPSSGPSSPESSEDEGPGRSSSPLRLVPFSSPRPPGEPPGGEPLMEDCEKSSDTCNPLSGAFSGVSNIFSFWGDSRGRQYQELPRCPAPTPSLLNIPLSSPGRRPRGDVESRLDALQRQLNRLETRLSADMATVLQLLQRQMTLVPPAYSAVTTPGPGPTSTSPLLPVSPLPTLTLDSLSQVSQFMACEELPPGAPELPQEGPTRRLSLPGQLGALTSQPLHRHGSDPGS

hERG [4] = molecular target: T1, hERG; test: hERG screening, Rubidium Efflux (hERG-CHO cells); type: cell-based; details: CHO cells expressing hERG; for inhibition at 30 min, 1.5 uG/mL: pH 7.4, 1.5 uG/mL, read-out: HERG Rb efflux % Inhib 1.5 uG/mL; for inhibition at 30 min, 5 uG/mL: pH 7.4, 5 uG/mL, read-out: HERG Rb efflux % Inhib 5 uG/mL
[5] = 30 min pre-incubation with NADPH, read-out: CYP 2D6 IC50 pre
[6] = co-incubation, read-out: CYP 2D6 IC50 co
[7] = 30 min pre-incubation with NADPH, read-out: CYP 3A4 IC50 pre
[8] = co-incubation, read-out: CYP 3A4 IC50 co
[9] = 30 min pre-incubation with NADPH, read-out: CYP 2C9 IC50 pre
[10] = co-incubation, read-out: CYP 2C9 IC50 co

Ki [1]: 0.0061 µM
IC50 [2]: 0.022 µM
CathD Selectivity (human liver Cathepsin D): 163
IC50 (CYP2D6; [5]): > 30 µM
IC50 (CYP2D6; [6]): > 30 µM
IC50 (CYP3A4; [7]): > 30 µM
IC50 (CYP3A4; [8]): > 30 µM
IC50 (CYP2C9; [9]): > 30 µM
IC50 (CYP2C9; [10]): > 30 µM
Compound: CCc1nc(N2C[C@H]3C(=O)N(C)C(=N)N[C@@]3(c3ccc(F)cc3)C2)nc(OC)c1F [Example 30]
inhibition at 5 min, 1 uM (hERG [3]): 2%
inhibition at 5 min, 10 uM (hERG [3]): 31%

Ki [1]: 0.0069 µM
IC50 [2]: 0.031 µM
CathD Selectivity (human liver Cathepsin D): 596
IC50 (CYP2D6; [5]): > 20 µM
IC50 (CYP2D6; [6]): > 20 µM
IC50 (CYP3A4; [7]): > 20 µM
IC50 (CYP3A4; [8]): > 20 µM
IC50 (CYP2C9; [9]): > 20 µM
IC50 (CYP2C9; [10]): > 20 µM
Compound: CCc1nc(N2C[C@H]3C(=O)N(C)C(=N)N[C@@]3(c3cc(F)ccc3F)C2)nc(OC)c1F [Example 31]
inhibition at 5 min, 1 uM (hERG [3]): 21%
inhibition at 5 min, 10 uM (hERG [3]): 88%

Ki [1]: 0.0053 µM
IC50 [2]: 0.026 µM
CathD Selectivity (human liver Cathepsin D): 310
IC50 (CYP2D6; [5]): > 20 µM
IC50 (CYP2D6; [6]): > 20 µM
IC50 (CYP3A4; [7]): > 20 µM
IC50 (CYP3A4; [8]): > 20 µM
IC50 (CYP2C9; [9]): > 20 µM
IC50 (CYP2C9; [10]): > 20 µM
Compound: CCc1nc(N2C[C@H]3C(=O)N(C)C(=N)N[C@@]3(c3ccc(F)cc3F)C2)nc(OC)c1F [Example 32]
inhibition at 5 min, 1 uM (hERG [3]): 19%
inhibition at 5 min, 10 uM (hERG [3]): 95%

Ki [1]: 0.0056 µM
IC50 [2]: 0.086 µM
CathD Selectivity (human liver Cathepsin D): 88
IC50 (CYP2D6; [5]): > 20 µM
IC50 (CYP2D6; [6]): > 20 µM
IC50 (CYP3A4; [7]): > 20 µM
IC50 (CYP3A4; [8]): > 20 µM
IC50 (CYP2C9; [9]): > 20 µM
IC50 (CYP2C9; [10]): > 20 µM
Compound: COc1nc(N2C[C@H]3C(=O)N(C)C(=N)N[C@@]3(c3cc(F)ccc3F)C2)nc(C2CC2)c1F [Example 34]
inhibition at 5 min, 1 uM (hERG [3]): 7%
inhibition at 5 min, 10 uM (hERG [3]): 65%

Ki [1]: 0.0065 µM
IC50 [2]: 0.09 µM
CathD Selectivity (human liver Cathepsin D): 634
IC50 (CYP2D6; [5]): > 20 µM
IC50 (CYP2D6; [6]): > 20 µM
IC50 (CYP3A4; [7]): ~20 µM
IC50 (CYP3A4; [8]): > 20 µM
IC50 (CYP2C9; [9]): ~20 µM
IC50 (CYP2C9; [10]): ~20 µM
Compound: COc1nc(N2C[C@H]3C(=O)N(C)C(=N)N[C@@]3(c3cc(F)ccc3F)C2)nc(C2CC2)c1Cl [Example 35]
inhibition at 5 min, 1 uM (hERG [3]): 5%
inhibition at 5 min, 10 uM (hERG [3]): 23%

Ki [1]: 0.014 µM
IC50 [2]: 0.063 µM
CathD Selectivity (human liver Cathepsin D): 1202
IC50 (CYP2D6; [5]): > 20 µM
IC50 (CYP2D6; [6]): > 20 µM
IC50 (CYP3A4; [7]): > 20 µM
IC50 (CYP3A4; [8]): > 20 µM
IC50 (CYP2C9; [9]): > 20 µM
IC50 (CYP2C9; [10]): > 20 µM
Compound: COc1nc(N2C[C@H]3C(=O)N(C)C(=N)N[C@@]3(c3cccc(C#N)c3)C2)nc(C)c1F [Example 36]
inhibition at 5 min, 1 uM (hERG [3]): 3%
inhibition at 5 min, 10 uM (hERG [3]): 37%

Ki [1]: 0.0027 µM
IC50 [2]: 0.031 µM
CathD Selectivity (human liver Cathepsin D): 209
IC50 (CYP2D6; [5]): > 20 µM
IC50 (CYP2D6; [6]): > 20 µM
IC50 (CYP3A4; [7]): > 20 µM
IC50 (CYP3A4; [8]): > 20 µM
IC50 (CYP2C9; [9]): > 20 µM
IC50 (CYP2C9; [10]): > 20 µM
Compound: COc1nc(N2C[C@H]3C(=O)N(C)C(=N)N[C@@]3(c3ccc(F)cc3F)C2)nc(C2CC2)c1F [Example 38]
inhibition at 5 min, 1 uM (hERG [3]): 12%
inhibition at 5 min, 10 uM (hERG [3]): 63%

Ki [1]: 0.016 µM
IC50 [2]: 0.021 µM
CathD Selectivity (human liver Cathepsin D): 116
IC50 (CYP2D6; [5]): > 20 µM
IC50 (CYP2D6; [6]): > 20 µM
IC50 (CYP3A4; [7]): > 20 µM
IC50 (CYP3A4; [8]): > 20 µM
IC50 (CYP2C9; [9]): > 20 µM
IC50 (CYP2C9; [10]): > 20 µM
Compound: COc1nc(N2C[C@H]3C(=O)N(C)C(=N)N[C@@]3(c3ccc(F)cc3F)C2)nc(CO)c1F [Example 43]
inhibition at 5 min, 1 uM (hERG [3]): 6%
inhibition at 5 min, 10 uM (hERG [3]): 27%

Further lines, the compound ahead of its results:

Compound: COc1nc(N2C[C@H]3C(=O)N(C)C(=N)N[C@@]3(c3ccc(F)cc3Cl)C2)nc(C)c1F [Example 20]
Ki [1]: 0.0045 µM
IC50 [2]: 0.0095 µM
CathD Selectivity (human liver Cathepsin D): 106
IC50 (CYP2D6; [5]): > 20 µM
IC50 (CYP2D6; [6]): > 20 µM
IC50 (CYP3A4; [7]): 8.3 µM
IC50 (CYP3A4; [8]): > 20 µM
IC50 (CYP2C9; [9]): 8.9 µM
IC50 (CYP2C9; [10]): 7.5 µM
inhibition at 5 min, 1 uM (hERG [3]): 29%
inhibition at 5 min, 10 uM (hERG [3]): 93%

Compound: COc1nc(N2C[C@H]3C(=O)N(C)C(=N)N[C@@]3(c3ccc(F)cc3)C2)nc(C2CC2)c1F [Example 21]
Ki [1]: 0.0048 µM
IC50 [2]: 0.05 µM
CathD Selectivity (human liver Cathepsin D): 50
IC50 (CYP2D6; [5]): 10.1 µM
IC50 (CYP2D6; [6]): 13.7 µM
IC50 (CYP3A4; [7]): > 20 µM
IC50 (CYP3A4; [8]): > 20 µM
IC50 (CYP2C9; [9]): > 20 µM
IC50 (CYP2C9; [10]): > 20 µM
inhibition at 5 min, 1 uM (hERG [3]): 7%
inhibition at 5 min, 10 uM (hERG [3]): 73%

Compound: CCc1nc(N2C[C@H]3C(=O)N(C)C(=N)N[C@@]3(c3cc(F)c(F)cc3F)C2)nc(OC)c1F [Example 22]
Ki [1]: 0.0056 µM
IC50 [2]: 0.018 µM
CathD Selectivity (human liver Cathepsin D): 53
IC50 (CYP2D6; [5]): > 20 µM
IC50 (CYP2D6; [6]): > 20 µM
IC50 (CYP3A4; [7]): > 20 µM
IC50 (CYP3A4; [8]): > 20 µM
IC50 (CYP2C9; [9]): > 20 µM
IC50 (CYP2C9; [10]): ~20 µM
inhibition at 5 min, 1 uM (hERG [3]): 35%
inhibition at 5 min, 10 uM (hERG [3]): 96%

Compound: COc1nc(N2C[C@H]3C(=O)N(C)C(=N)N[C@@]3(c3ccc(F)cc3)C2)nc(OC)c1F [Example 27]
Ki [1]: 0.0044 µM
IC50 [2]: 0.0615 µM
CathD Selectivity (human liver Cathepsin D): 1063
IC50 (CYP2D6; [5]): ~30 µM
IC50 (CYP2D6; [6]): 14.7 µM
IC50 (CYP3A4; [7]): 4.2 µM
IC50 (CYP3A4; [8]): > 30 µM
IC50 (CYP2C9; [9]): > 30 µM
IC50 (CYP2C9; [10]): > 30 µM
inhibition at 5 min, 1 uM (hERG [3]): 2%
inhibition at 5 min, 10 uM (hERG [3]): 51%

Compound: Cc1nc(N2C[C@H]3C(=O)N(C)C(=N)N[C@@]3(c3ccc(F)cc3)C2)nc(C)c1F [Example 28]
Ki [1]: 0.064 µM
IC50 [2]: 0.114 µM
IC50 (CYP2D6; [5]): ~30 µM
IC50 (CYP2D6; [6]): 23.3 µM
IC50 (CYP3A4; [7]): > 30 µM
IC50 (CYP3A4; [8]): > 30 µM
IC50 (CYP2C9; [9]): > 30 µM
IC50 (CYP2C9; [10]): > 30 µM
inhibition at 30 min, 1.5 uG/mL (hERG [4]): 13%
inhibition at 30 min, 5 uG/mL (hERG [4]): 14%

Compound: COc1nc(N2C[C@H]3C(=O)N(C)C(N)=N[C@@]3(c3c(F)cc(F)c(F)c3F)C2)nc(C)c1F [Example 29]
IC50 (CYP2D6; [5]): > 30 µM
IC50 (CYP2D6; [6]): > 30 µM
IC50 (CYP2C9; [9]): > 30 µM
IC50 (CYP2C9; [10]): > 30 µM
inhibition at 30 min, 1.5 uG/mL (hERG [4]): -4%
inhibition at 30 min, 5 uG/mL (hERG [4]): 3%
